Here are results for three molecules from patent US6376497B1, “Antifungal azole derivatives having a fluorinated vinyl group and process for preparing same” (Korea Research Institute of Chemical Technology, priority 1999, dated 2002).

Experiment in all cases: In vitro antifungal activity, microbroth dilution MIC
Holding throughout (type): cell-based

In experiment [1] the test system is Trichophyton mentagrophytes A. 9129. As to conditions: for Minimal inhibitory concentration (MIC): T. mentagrophytes A. 9129, RPMI-1640, 35° C., 4 to 48 hours. The protocol:
(§1) In vitro antifungal activities of the inventive antifungal compounds were evaluated using the test strains shown in Table VIII by the following microbroth dilution method which is a modified version of the procedure recommended by National Committee for Clinical Laboratory Standards(see National Committee for Clinical Laboratory Standards, 1992, Reference methods for broth dilution antifungal susceptibility testing of yeasts, Proposed standard M27-P, National Committee for clinical laboratory standards, Villanova, Pa; and National Committee for Clinical Laboratory Standards, 1995, Reference methods for broth dilution antifungal susceptibility testing of yeasts. Tentative standard M27-T, National Committee for clinical laboratory standards, Villanova, Pa).
(§2) Sabourad Dextrose Agar(Difco) was used as a culture medium, and RPMI-1640 broth(Sigma. Co. w/L-glutamine, wo/NaHCO3)(0.165 M MOPS, pH 7.0), as a dilution medium.
(§3) Each of the test strains were subcultured in Sabourad Dextrose Agar medium twice and a stain sample was taken from prominent colonies and suspended in sterile physiological saline solution in a cap tube. The turbidity of the suspension was adjusted to that of the Mcfarland 0.5 standard sample(approximately 10^6 CFU/ml). Then the suspension was diluted 500-fold with sterile RPMI-1640 liquid medium to 2×10^3 CFU/ml.
(§4) Each of the test compounds(the compounds obtained in Examples 1 to 150 and comparative compounds, i.e., fluconazole(FCZ) and itraconazole (ICZ)), was dissolved in DMSO to give a stock solution having a concentration of 4000 μg/ml and the stock solution was successively diluted to obtain test solutions having test compound concentrations of 200, 100, 50, 25, 12.5, 6.25, 3.13, 1.56, 0.78, 0.39, 0.20 and 0.10 μg/ml, respectively.
(§5) 0.1 ml portion of the test solutions were added to the wells of a sterile 96 well plate. Then, 0.1 ml portion of each of the test strain solutions were added successively to the wells and the plate was incubated at 35° C. for 4 to 48 hours.
(§6) Minimal inhibitory concentration(MIC) of each compound was defined as the concentration of the test compound where no growth of the strain could be observed.

Experiment [2] deals with Cryptococcus neoformans A. 34144. As to conditions: for Minimal inhibitory concentration (MIC): Cry. neoformans A. 34144, RPMI-1640, 35° C., 4 to 48 hours. The protocol: as §1, §2, §3, §4, §5, §6
The subject of experiment [3] is Candida parapsitosis A. 7330. As to conditions: 4 to 48 hours; for Minimal inhibitory concentration (MIC): C. parapsitosis A. 7330, RPMI-1640, 35° C. The method, then: as §1, §2, §3, §4, §5, §6
In experiment [4] the test system is Trichophyton mentagrophytes B. 32663. As to conditions: for Minimal inhibitory concentration (MIC): T. mentagrophytes B. 32663, RPMI-1640, 35° C., 4 to 48 hours. The method, then:
as §1, §2, §3, §4, §5, §6

Experiment [5] deals with Candida pseudotropicalis K. 11658. As to conditions: 4 to 48 hours; for Minimal inhibitory concentration (MIC): C. pseudotropicalis K. 11658, RPMI-1640, 35° C. The method, then: as §1, §2, §3, §4, §5, §6
Experiment [6] has as its system Candida tropicalis A. 13803. As to conditions: 4 to 48 hours; for Minimal inhibitory concentration (MIC): C. tropicalis A. 13803, RPMI-1640, 35° C. The method, then:
as §1, §2, §3, §4, §5, §6

Experiment [7] relates to Cryptococcus neoformans IFM. 40092. As to conditions: for Minimal inhibitory concentration (MIC): Cry. neoformans IFM. 40092, RPMI-1640, 35° C., 4 to 48 hours. The method, then: as §1, §2, §3, §4, §5, §6
The next experiment deals with Candida albicans C1-2. As to conditions: 4 to 48 hours; for Minimal inhibitory concentration (MIC): C. albicans C1-2, RPMI-1640, 35° C. The method, then:
as §1, §2, §3, §4, §5, §6

In experiment [8] the test system is Aspergillus niger A. 16404. As to conditions: for Minimal inhibitory concentration (MIC): A. niger A. 16404, RPMI-1640, 35° C., 4 to 48 hours. The method, then: as §1, §2, §3, §4, §5, §6
The test system of experiment [9] is Candida albicans IFO. 1385. As to conditions: 4 to 48 hours; for Minimal inhibitory concentration (MIC): C. albicans IFO. 1385, RPMI-1640, 35° C. The method, then:
as §1, §2, §3, §4, §5, §6

Experiment [10] has as its system Candida albicans A. 10231. As to conditions: 4 to 48 hours; for Minimal inhibitory concentration (MIC): C. albicans A. 10231, RPMI-1640, 35° C. The protocol:
as §1, §2, §3, §4, §5, §6

The test system of experiment [11] is Aspergillus furnigatus B. 19119. As to conditions: for Minimal inhibitory concentration (MIC): A furnigatus B. 19119, RPMI-1640, 35° C., 4 to 48 hours. The method, then:
as §1, §2, §3, §4, §5, §6

The next experiment concerns Candida krusei K. 11655. As to conditions: 4 to 48 hours; for Minimal inhibitory concentration (MIC): C. krusei K. 11655, RPMI-1640, 35° C. The method, then: as §1, §2, §3, §4, §5, §6
Experiment [12] concerns Cryptococcus neoformans B. 42419. As to conditions: 4 to 48 hours; for Minimal inhibitory concentration (MIC): Cry. neoformans B. 42419, RPMI-1640, 35° C. The method, then:
as §1, §2, §3, §4, §5, §6

Experiment [13] has as its system Torulopsis glabrata B. 16205. As to conditions: 4 to 48 hours; for Minimal inhibitory concentration (MIC): T. glabrata B. 16205, RPMI-1640, 35° C. The method, then: as §1, §2, §3, §4, §5, §6
Setting [14] is: RPMI-1640, 35° C., no growth observed.

Converted amounts (≈) assume the structure as drawn. A value given as a limit tells only on which side of the number the result lay.

Consider `FC(OCC1COC(Cn2ccnc2)(c2ccc(Cl)cc2Cl)O1)=C(c1ccc(Cl)cc1)C(F)(F)F` (stereo not drawn) [Ex. 31], for which the “Minimal inhibitory concentration (MIC)” value in experiment [1] came out at 3.13 µg/mL (≈ 5.67 µM); in experiment [2], 1.56 µg/mL (≈ 2.83 µM); in [3] it was 25.0 µg/mL (≈ 45.3 µM); in experiment [4] it was 1.56 µg/mL (≈ 2.83 µM); in experiment [5], 12.5 µg/mL (≈ 22.7 µM); in experiment [6] it was 12.5 µg/mL (≈ 22.7 µM). For the same molecule, the “Minimal inhibitory concentration (MIC)” value in experiment [7] is 0.78 µg/mL (≈ 1.41 µM); in the experiment with Candida albicans C1-2, 12.5 µg/mL (≈ 22.7 µM); in experiment [8], 6.25 µg/mL (≈ 11.3 µM); in experiment [9] it was 0.78 µg/mL (≈ 1.41 µM); in experiment [10], 12.5 µg/mL (≈ 22.7 µM); in experiment [11], 6.25 µg/mL (≈ 11.3 µM). Further, the “Minimal inhibitory concentration (MIC)” value came out at 25.0 µg/mL (≈ 45.3 µM) with Candida krusei K. 11655, 1.56 µg/mL (≈ 2.83 µM) in experiment [12] and 6.25 µg/mL (≈ 11.3 µM) in experiment [13].

`COc1cccc(C=C(F)OCC2COC(Cn3ccnc3)(c3ccc(Cl)cc3Cl)O2)c1` (stereo not drawn) [Ex. 8]: the “Minimal inhibitory concentration (MIC)” value in experiment [1] stood at 3.13 µg/mL (≈ 6.53 µM); in [2] it was 3.13 µg/mL (≈ 6.53 µM); in experiment [3] it was 12.5 µg/mL (≈ 26.1 µM); in experiment [4], 1.56 µg/mL (≈ 3.25 µM); in experiment [5], 12.5 µg/mL (≈ 26.1 µM); in experiment [6] it was 25.0 µg/mL (≈ 52.2 µM). Also, the “Minimal inhibitory concentration (MIC)” value is 0.78 µg/mL (≈ 1.63 µM) in experiment [7]; 25.0 µg/mL (≈ 52.2 µM) with Candida albicans C1-2; 6.25 µg/mL (≈ 13 µM) in experiment [8]; 1.56 µg/mL (≈ 3.25 µM) in experiment [9]; 12.5 µg/mL (≈ 26.1 µM) in experiment [10]; 6.25 µg/mL (≈ 13 µM) in [11]. Moreover, the “Minimal inhibitory concentration (MIC)” value in the experiment on Candida krusei K. 11655 turned out to be 6.25 µg/mL (≈ 13 µM); in [12] it was 1.56 µg/mL (≈ 3.25 µM); in experiment [13], 6.25 µg/mL (≈ 13 µM).

`COc1ccc(C(=C(F)N2CCN(c3ccc(OCC4COC(Cn5ccnc5)(c5ccc(F)cc5F)O4)cc3)CC2)C(F)(F)F)cc1` (mixture of isomers) [Ex. 144]: the “Minimal inhibitory concentration(MIC), T. mentagrophytes A. 9129” value in experiment [1] (setting [14]) was 12.5 µg/mL. Besides, in experiment [2] (setting [14]), the “Minimal inhibitory concentration(MIC), Cry. neoformans A. 34144” value is 3.13 µg/mL. Besides, the “Minimal inhibitory concentration(MIC), C. parapsitosis A. 7330” value in experiment [3] (setting [14]) worked out at 3.13 µg/mL. Also, in experiment [4] (setting [14]), the “Minimal inhibitory concentration(MIC), T. mentagrophytes B. 32663” value was determined as 1.56 µg/mL. In addition, the “Minimal inhibitory concentration(MIC), C. pseudotropicalis K. 11658” value in experiment [5] (setting [14]) was 1.56 µg/mL. For the same molecule, the “Minimal inhibitory concentration(MIC), C. tropicalis A. 13803” value in experiment [6] (setting [14]) was above 100 µg/mL. In experiment [7] (setting [14]), the “Minimal inhibitory concentration(MIC), Cry. neoformans IFM. 40092” value was determined as 0.39 µg/mL. Also, the “Minimal inhibitory concentration(MIC), C. albicans C1-2” value in the experiment on Candida albicans C1-2 (setting [14]) was above 100 µg/mL. The “Minimal inhibitory concentration(MIC), A. niger A. 16404” value in [8] (setting [14]) was above 100 µg/mL. Moreover, in [9] (setting [14]), the “Minimal inhibitory concentration(MIC), C. albicans IFO. 1385” value is 0.39 µg/mL. Further, in experiment [10] (setting [14]), the “Minimal inhibitory concentration(MIC), C. albicans A. 10231” value is above 100 µg/mL. The “Minimal inhibitory concentration(MIC), A furnigatus B. 19119” value in experiment [11] (setting [14]) is 100 µg/mL. For the same molecule, in the experiment on Candida krusei K. 11655 (setting [14]), the “Minimal inhibitory concentration(MIC), C. krusei K. 11655” value was determined as 6.25 µg/mL. In addition, in [12] (setting [14]), the “Minimal inhibitory concentration(MIC), Cry. neoformans B. 42419” value was 0.39 µg/mL. Besides, the “Minimal inhibitory concentration(MIC), T. glabrata B. 16205” value in experiment [13] (setting [14]) was above 100 µg/mL.
